Test results as given in patent US20240350450A1, “COMPOSITION COMPRISING a-KE[…] (a-KG) AND 5-HYDROXYMETHYL-2-FURFURAL (5-HMF) TO IMPROVE HEMOGLOBIN-MEDIATED OXYGEN SUPPLY” (CYL GmbH, priority 2021, published 2024).
Entries after “also recorded” stand apart in the source; their conditions may differ.

Tests used:
hypoxia = conditions: pigs exposed to hypoxia; cited from earlier work
hemoglobin (Hb) = molecular target: T1, hemoglobin (Hb) (Homo sapiens, UniProt P68871+P69905); experiment: in vitro high-throughput determination of oxygen dissociation curves (ODC) in whole blood samples; format: biochemical; conditions: for Hill coefficient (HC) / P50 / Hb oxygen binding affinity (Hb-O2 affinity): human whole blood, low, medium and high dosage, 37° C., 40 mmHg PCO2
T1 construct: Venous blood was collected from 20 healthy subjects (ten women, ten men) aged 18 to 40 years; from tissue; host or cells: human venous whole blood (erythrocytes) of healthy volunteers
Protocol: Venous blood was collected from 20 healthy subjects (ten women, ten men) aged 18 to 40 years. […] Immediately after blood collection, blood gas analysis was performed (ABL800 flex, radiometer) and samples were stored on ice and processed within eight hours.
The recommended maximum daily dose of 5-HMF of Sanopal® (Cyl, Austria) is 720 mg. Assuming its total distribution in the blood volume of a 70 kg person to be approximately 5000 ml (16), the low dose of 5-HMF was defined as 0.14 mg/ml ([…]).
To ensure stable conditions during the ODC measurement, the measurement setup was set up in an environmentally controlled, closed device (EC box). This box is temperature-controlled (37° C.) and contains the experimental setup consisting of a humidifier, a cover for the microplate reader, tubes and valves. A modified 96-well plate was used (a special coating process ensures a thin, yet adherent layer of red blood cells for optimal fluorescence measurement), which enabled a constant gas flow across all wells in a meandering gas flow channel. The measuring plate is integrated into a gas system consisting of gas bags, gas hoses, humidifiers, gas mixers and a peristaltic pump.
The blood samples were placed in the individual wells using a special stamping technique so that a film consisting of a few cell layers could form. Oxygen saturation was measured in each well using dual-wavelength spectroscopy and oxygen partial pressure was measured using the fluorescence lifetime of commercial oxygen sensors at the inlet and outlet ports of the measuring plate. An oxygen ramp of around 20% by volume to 0% by volume was formed, so that a dissociation curve can be measured. The measurements were carried out every minute in a conventional fluorescence plate reader, so that up to 92 samples of whole blood could be analyzed within ˜25 min.
For the ODC experiments, gas mixtures containing 40 mmHg PCO2 were used, and the temperature was kept constant at 37° C.
The statistical analysis was performed using IBM SPSS Statistics 25. The unpaired t-test was used to analyze baseline differences between substance compositions. ANOVA with repeated measures design was used to determine P50 and HC differences between the different dosages and substance compositions.
Post-hoc t-test (Bonferroni-corrected) and ANOVA with repeated measures design were used for each individual substance or a combination of two substances to identify the location and magnitude of changes. Linear regression analysis was used to determine the concentration dependence for each substance. P<0.05 was considered significant. Data are presented as mean±SD.

[1] = 143 mg/kg 5-HMF, animal studies; cited from earlier work
HbO2 affinity = conditions: human subjects exposed to hypoxia, sickle cell anemia patients; cited from earlier work
severe hypoxia = conditions: animal model of severe hypoxia; cited from earlier work

T1 sequence (P69905 2-142 limits assumed): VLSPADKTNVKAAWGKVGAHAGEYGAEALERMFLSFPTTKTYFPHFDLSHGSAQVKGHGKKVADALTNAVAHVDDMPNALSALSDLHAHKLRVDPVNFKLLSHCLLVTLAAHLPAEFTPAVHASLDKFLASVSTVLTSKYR
T1 sequence (P68871 2-147 limits assumed): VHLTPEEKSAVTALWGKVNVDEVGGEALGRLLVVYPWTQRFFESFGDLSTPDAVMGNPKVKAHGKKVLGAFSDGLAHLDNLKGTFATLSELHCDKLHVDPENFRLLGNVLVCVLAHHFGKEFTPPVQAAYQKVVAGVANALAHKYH

Compound | arterial oxygen saturation (SO2) (hypoxia) | hypoxia-associated increase in pulmonary arterial pressure (hypoxia) | Hill coefficient (HC) (hemoglobin (Hb)) | P50 / Hb oxygen binding affinity (Hb-O2 affinity) (hemoglobin (Hb)) | adverse effects [1] | HbO2 affinity (HbO2 affinity) | hemodynamic stability and microvascular oxygenation (severe hypoxia) | dose dependence of P50 (hemoglobin (Hb); linear regression over low, medium, high dose)
O=Cc1ccc(CO)o1 [5-HMF, 5-hydroxymethyl-2-furfural] | improved arterial oxygen saturation | attenuation | significantly changed | strong dose-dependent increase in Hb-O2 affinity; also recorded: significantly changed P50; also recorded: strong dose-dependent increase in HbO2 affinity; also recorded: significant reduction in the P50 | increase in serum gamma globulin levels and the relative spleen weight | increases in HbO2 affinity were detected | protect against hemodynamic instability and maintain microvascular oxygenation | –
O=C(O)CCC(=O)C(=O)O [α-KG, α-ketoglutaric acid] | – | – | altered | altered P50 | – | – | – | lowest effect
